Test results reported in patent publication US20050113450A1, “Antibacterial agents” (priority 2002, published 2005).
≈ marks a conversion by molar mass, not a printed value.

System: SA 9218
Assay: MIC by standard agar dilution method
Type: cell-based
Settings: Mueller Hinton agar, 10^4 to 10^5 cells per spot, incubated overnight at 35° C., lowest concentration that inhibits visible growth
Outline: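 Agar dilution: two-fold compound dilutions mixed into molten Mueller Hinton agar, spots of ~10^4–10^5 cells from 0.5 McFarland suspension diluted 1:20 in TSB. Incubated overnight at 35 °C; MIC is lowest concentration inhibiting visible growth.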

Compound | MIC | SA 9218 MIC
O=C(Nc1ccc(-c2ccc(F)cc2F)cc1C(=O)O)c1cccc(S(=O)(=O)N2CCc3cc(Cl)ccc32)c1 [PHA-563281] | 1 µg/mL (≈ 1.76 µM) | 
Cc1ccc(-c2ccc(NC(=O)c3cccc(S(=O)(=O)N4CCc5cc(Cl)ccc54)c3)c(C(=O)O)c2)s1 [PHA-563282] | 1 µg/mL (≈ 1.81 µM) | 
CC(C)(C)c1ccc(-c2ccc(NC(=O)c3cccc(S(=O)(=O)N4CCc5cc(Cl)ccc54)c3)c(C(=O)O)c2)cc1 [PHA-563283] | 16 µg/mL (≈ 27.2 µM) | 
O=C(Nc1ccc(-c2cccc(C(F)(F)F)c2)cc1C(=O)O)c1cccc(S(=O)(=O)N2CCc3cc(Cl)ccc32)c1 [PHA-563284] | 2 µg/mL (≈ 3.33 µM) | 
O=C(Nc1ccc(-c2ccc(C(F)(F)F)cc2)cc1C(=O)O)c1cccc(S(=O)(=O)N2CCc3cc(Cl)ccc32)c1 [PHA-563285] | 2 µg/mL (≈ 3.33 µM) | 
O=C(Nc1ccc(-c2ccccn2)cc1C(=O)O)c1cccc(S(=O)(=O)N2CCc3cc(Cl)ccc32)c1 [PHA-563324] | > 128 µg/mL | 
COc1ccc(Oc2cccc(C(=O)Nc3ccc(C#N)cc3C(=O)O)c2)cc1 [PHA-564215] | 0.5 µg/mL (≈ 1.29 µM) | 
N#Cc1ccc(NC(=O)c2cccc(Oc3cccc([N+](=O)[O-])c3)c2)c(C(=O)O)c1 [PHA-564218] | 1 µg/mL (≈ 2.48 µM) | 
N#Cc1ccc(NC(=O)c2cccc(S(=O)(=O)N3CCCCC3)c2)c(C(=O)O)c1 [PHA-564750] | 0.25 µg/mL (≈ 0.605 µM) | 
O=C(Nc1ccc(Br)cc1C(=O)O)c1cccc(C(O)c2ccccc2)c1 (stereo not drawn) [PHA-566947] |  | 0.5 µg/mL
O=C(Nc1ccc(Br)cc1C(=O)O)c1cccc(C(O)c2ccccc2)c1 (stereo not drawn) [PHA-566948] | 1 µg/mL (≈ 2.35 µM) | 
O=C(O)c1cc([N+](=O)[O-])ccc1/C=C/c1cccc(S(=O)(=O)N2CCc3cc(Cl)ccc32)c1 [PHA-568196] | 1 µg/mL (≈ 2.06 µM) | 
O=C(O)c1ccc([N+](=O)[O-])cc1/C=C\c1cccc(S(=O)(=O)N2CCc3cc(Cl)ccc32)c1 [PHA-568197] | 16 µg/mL (≈ 33 µM) | 
Cc1ccccc1-c1ccc(NC(=O)c2cccc(S(=O)(=O)N3CCc4cc(Cl)ccc43)c2)c(C(=O)O)c1 [PHA-568205] | 2 µg/mL (≈ 3.66 µM) | 
O=C(Nc1ccc(-c2ccc(Cl)s2)cc1C(=O)O)c1cccc(S(=O)(=O)N2CCc3cc(Cl)ccc32)c1 [PHA-568206] | 2 µg/mL (≈ 3.49 µM) | 
O=C(Nc1ccc(Br)cc1C(=O)O)c1ccc(S(=O)(=O)N2CCCC2)cc1 [PHA-568376] | 16 µg/mL (≈ 35.3 µM) | 
O=C(Nc1ccc(Br)cc1C(=O)O)c1cccc(S(=O)(=O)N2CCCC2)c1 [PHA-568378] | 2 µg/mL (≈ 4.41 µM) | 
N#Cc1ccc(NC(=O)c2cccc(S(=O)(=O)N3CCOCC3)c2)c(C(=O)O)c1 [PHA-568420] |  | 0.5 µg/mL

The remaining lines, values ahead:

MIC | SA 9218 MIC | Compound
0.125 µg/mL (≈ 0.263 µM) |  | COc1cccc2ccn(S(=O)(=O)c3cccc(C(=O)Nc4ccc(C#N)cc4C(=O)O)c3)c12 [PHA-568422]
1 µg/mL (≈ 2.1 µM) |  | COc1ccc2ccn(S(=O)(=O)c3cccc(C(=O)Nc4ccc(C#N)cc4C(=O)O)c3)c2c1 [PHA-568424]
8 µg/mL (≈ 16.3 µM) |  | N#Cc1ccc(NC(=O)c2cc(CCO)cc(S(=O)(=O)N3CCc4ccccc43)c2)c(C(=O)O)c1 [PHA-568425]
0.125 µg/mL (≈ 0.27 µM) |  | N#Cc1ccc(NC(=O)c2cccc(S(=O)(=O)n3ccc4cc(F)ccc43)c2)c(C(=O)O)c1 [PHA-568461]
8 µg/mL (≈ 13.4 µM) |  | COc1ncc(-c2ccc(NC(=O)c3cccc(S(=O)(=O)N4CCc5cc(Cl)ccc54)c3)c(C(=O)O)c2)c(OC)n1 [PHA-568906]
8 µg/mL (≈ 21.8 µM) |  | N#Cc1ccc(NC(=O)c2ccc(C#Cc3ccccc3)cc2)c(C(=O)O)c1 [PHA-568907]
0.5 µg/mL |  | Cl.N#Cc1ccc(NC(=O)c2cccc(SCc3ccncc3)c2)c(C(=O)O)c1 [PHA-569044A]
0.25 µg/mL (≈ 0.642 µM) |  | N#Cc1ccc(NC(=O)c2cccc(SCc3ccncc3)c2)c(C(=O)O)c1 [PHA-569044]
1 µg/mL (≈ 2.42 µM) |  | CC1CCCN1S(=O)(=O)c1cccc(C(=O)Nc2ccc(C#N)cc2C(=O)O)c1 (stereo not drawn) [PHA-569064]
1 µg/mL (≈ 2.34 µM) |  | CC1CCC(C)N1S(=O)(=O)c1cccc(C(=O)Nc2ccc(C#N)cc2C(=O)O)c1 (stereo not drawn) [PHA-569077]
0.25 µg/mL (≈ 0.538 µM) |  | N#Cc1ccc(/C=C/c2cccc(S(=O)(=O)N3CCc4cc(Cl)ccc43)c2)c(C(=O)O)c1 [PHA-569887]
1 µg/mL (≈ 2.69 µM) |  | N#Cc1ccc(NC(=O)c2cccc(OCc3ccccc3)c2)c(C(=O)O)c1 [PHA-569974]
